Data set [1] concerns phospho-cdc2 (Tyr15) in HT-29 cells. Nature of the data set: Effect on phosphorylation of cdc2 at Tyr15, PathScan ELISA (Method 2). Format: cell-based. As to conditions: Homo sapiens, 8 h, eight hours incubation, read-out: HT29 pCDC2 method 2. An outline of the steps: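 HT-29 cells exposed to compound for eight hours at 37° C., then lysed. Phospho-cdc2 (Tyr15) measured by sandwich ELISA with HRP/TMB read-out at 450 nm. Percent of DMSO control plotted vs concentration; IC50 from non-linear regression.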
On the technique in general: An ELISA detects its analyte on a solid surface through an enzyme-linked reagent.

The nature of data set [2]: CLint estimates using human liver microsomes (Method 4). Type of data set: in vitro ADME. As to conditions: pH 7.4, 1 μM compound, read-out: Mics - CLint (HLM CLint). The essentials:
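Compound at 1 μM (0.1% DMSO) incubated with human liver microsomes (0.5 mg protein/mL) in 0.1 M phosphate pH 7.4 at 37 °C, started with 1 mM NADPH. Samples taken 2–50 min, quenched in methanol, measured by LC/MS/MS (MRM). Half-life and CLint derived from the slope of ln peak area versus time.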

The target in another data set is T1, Wee-1 kinase (Homo sapiens, UniProt P30291).
T1 construct: purchased Invitrogen PV3817
T1 sequence (P30291 whole entry): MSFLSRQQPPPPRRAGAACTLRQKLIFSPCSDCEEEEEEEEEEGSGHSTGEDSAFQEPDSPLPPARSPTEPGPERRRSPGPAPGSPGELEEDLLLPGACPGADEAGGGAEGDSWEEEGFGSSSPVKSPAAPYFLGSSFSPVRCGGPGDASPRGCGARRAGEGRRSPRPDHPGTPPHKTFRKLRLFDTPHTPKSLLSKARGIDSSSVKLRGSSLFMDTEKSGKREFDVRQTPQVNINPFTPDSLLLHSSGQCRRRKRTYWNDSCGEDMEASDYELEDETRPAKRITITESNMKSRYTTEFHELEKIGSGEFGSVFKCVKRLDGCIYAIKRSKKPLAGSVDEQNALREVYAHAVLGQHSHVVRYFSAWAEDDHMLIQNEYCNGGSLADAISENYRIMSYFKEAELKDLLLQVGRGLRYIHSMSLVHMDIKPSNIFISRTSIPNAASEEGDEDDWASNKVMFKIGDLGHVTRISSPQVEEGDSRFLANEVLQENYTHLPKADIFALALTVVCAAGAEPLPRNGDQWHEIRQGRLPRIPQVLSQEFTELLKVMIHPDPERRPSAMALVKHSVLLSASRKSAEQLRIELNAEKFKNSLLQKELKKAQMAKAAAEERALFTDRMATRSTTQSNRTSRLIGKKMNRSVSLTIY
Kind of data set: Measurement of Wee-1 kinase activity (ADP-Glo luminescent kit). Type of data set: biochemical. The essentials:
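Activated Wee-1 was pre-incubated 30 min at RT with compound in 40 mM Tris-HCl, 20 mM MgCl2, 0.1 mg/mL BSA and 2 mM DTT. The reaction was started with an aliquot of 2.0 μg/mL poly(Lys,Tyr 4:1) plus 30 μM ATP and run 1 h at RT. ADP-Glo luminescence gave IC50 by non-linear fit.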

A value given as a limit tells only on which side of the number the result lay.

Regarding `CN1CN(c2c(Cl)cccc2Cl)C(=O)c2cnc(Nc3ccc4c(c3)CNCC4)nc21` [Example 14, 3-(2,6-Dichlorophenyl)-1-methyl-7-((1,2,3,4-tetrahydroisoquinolin-7-yl)amino)-2,3-dihydropyrimido[4,5-d]pyrimidin-4(1H)-one], the IC50 in data set [1] is at most 100 nM; on Wee-1 kinase it was at most 10 nM. The microsomal CLint at 1 μM in data set [2] was at most 15 µL/min/mg.
`CN1CN(c2c(F)cccc2Cl)C(=O)c2cnc(Nc3ccc(N4CCNCC4)cc3)nc21` [Example 25, 3-(2-Chloro-6-fluorophenyl)-1-methyl-7-((4-(piperazin-1-yl)phenyl)amino)-2,3-dihydropyrimido[4,5-d]pyrimidin-4(1H)-one]: the IC50 in data set [1] was at most 100 nM; on Wee-1 kinase it was 10 to 100 nM. The microsomal CLint at 1 μM in data set [2] is at most 15 µL/min/mg.
In the same order, the values of `CN1CN(c2c(Cl)cccc2Cl)C(=O)c2cnc(Nc3ccc(N4CCNCC4)c(C#N)c3)nc21` [Example 11, 3-(2,6-Dichlorophenyl)-7-((3-cyano-4-(piperazin-1-yl)phenyl)amino)-1-methyl-2,3-dihydropyrimido[4,5-d]pyrimidin-4(1H)-one] are 100 to 1000 nM, at most 10 nM and at most 15 µL/min/mg.
The like results for `CN1CN(c2c(Cl)cccc2Cl)C(=O)c2cnc(Nc3ccc(N4CC5CCC(C4)N5C)c(CO)c3)nc21` [Example 86, 3-(2,6-dichlorophenyl)-7-((3-(hydroxymethyl)-4-(8-methyl-3,8-diazabicyclo[3.2.1]octan-3-yl)phenyl)amino)-1-methyl-2,3-dihydropyrimido[4,5-d]pyrimidin-4(1H)-one] were, in that order, at most 100 nM, at most 10 nM and at most 15 µL/min/mg.
The like results for `CN1CN(c2c(Cl)cccc2Cl)C(=O)c2cnc(Nc3ccc(N4CC5CCC(C4)N5)cc3)nc21` [Example 74, 7-((4-(3,8-diazabicyclo[3.2.1]octan-3-yl)phenyl)amino)-3-(2,6-dichlorophenyl)-1-methyl-2,3-dihydropyrimido [4,5-d]pyrimidin-4(1H)-one] were, in that order, 100 to 1000 nM, 10 to 100 nM and at most 15 µL/min/mg.
With `COCc1cc(Nc2ncc3c(n2)N(C)CN(c2c(Cl)cccc2Cl)C3=O)ccc1N1CCNCC1` [Example 31, 3-(2,6-dichlorophenyl)-7-((3-(methoxymethyl)-4-(piperazin-1-yl)phenyl)amino)-1-methyl-2,3-dihydropyrimido[4,5-d]pyrimidin-4(1H)-one], the IC50 in data set [1] lay in the range of 100 to 1000 nM; on Wee-1 kinase, 10 to 100 nM. The microsomal CLint at 1 μM in data set [2] is at most 15 µL/min/mg.
The like results for `C[C@@H]1CN[C@@H](C)CN1c1ccc(Nc2ncc3c(n2)N(C)CN(c2c(Cl)cccc2Cl)C3=O)cc1` [Example 40, 3-(2,6-dichlorophenyl)-7-((4-((2R,5S)-2,5-dimethylpiperazin-1-yl)phenyl)amino)-1-methyl-2,3-dihydropyrimido[4,5-d]pyrimidin-4(1H)-one] were, in that order, at most 100 nM, at most 10 nM and at most 15 µL/min/mg.
`C[C@@H]1CN(c2ccc(Nc3ncc4c(n3)N(C)CN(c3c(Cl)cccc3Cl)C4=O)cc2)[C@@H](C)CN1` [Example 80, 3-(2,6-dichlorophenyl)-7-((4-((2S,5R)-2,5-dimethylpiperazin-1-yl)phenyl)amino)-1-methyl-2,3-dihydropyrimido[4,5-d]pyrimidin-4(1H)-one]: the IC50 in data set [1] was at most 100 nM; at Wee-1 kinase it was at most 10 nM. For the same compound, the microsomal CLint at 1 μM in data set [2] is 15 to 50 µL/min/mg.
